Each structure is given as a SMILES string. Where two headings read alike, the source gives them in different places.

One data set concerns PDAC organoids. The conditions noted are these: Shinkawa T et al, 2022; cited from earlier work.
For the next data set, the system named is CFPAC1 cells. The conditions noted are these: Raghavan et al., 2021; cited from earlier work.
Data set [1] deals with docetaxel resistant DU145 cells. Put plainly: WST-1 cell viability, docetaxel-resistant DU145 cells. It counts as cell-based. The conditions noted are these: for IC50: docetaxel resistant DU145 cells, 72-hour drug exposure, WST-1, read-out: mean half maximal inhibitory concentration (IC50). As to the method:
A DU145 prostate cancer cell line was obtained from American Type Culture […] (ATCC) and cultured in RPMI 1640 medium (Thermo Fisher Scientific), supplemented with 10% fetal bovine serum (FBS) (Gibco, Thermo Fisher Scientific) and maintained at 37° C. with 5% CO2. A docetaxel-resistant cell line model for DU145 was established by chronically exposing the parent cell line to stepwise increasing concentrations of docetaxel as previously described(41,42). Both cell lines were periodically monitored for mycoplasma using the Universal Mycoplasma Detection Kit following the manufacturer's protocol (A TCC). In vitro drug screening in both the docetaxei-resistant and control DU145 nodels was performed using either vemurafenib (PLX4032; CAS No. 918504-65-1) or docetaxel (RP-56976; CAS No. 114977-28-5) obtained from MedChem Express (Monmriouth Junction NJ, USA) dissolved in dimethylsulfoxide (DMSO) to obtain stock concentrations of 100 mM for vemurafenib or 5 mM for docetaxel.
(§1) Docetaxel-resistant and control DU145 cells were trypsinized, harvested, counterstained with Hoechst 33342 Fluorescent Stain (Thermo Scientific, Pierce Biotechnology, Rockford, IL) and resuspended in full growth media to 5×10^4 cells per mL prior to plating in 96-well microplates (Thermo Scientific) using a seeding density of 5×10^3 cells per well and allowed to attach for 24 hours. Following incubation, cells were treated with different concentrations of either docetaxel ranging from 0.92 nM to 6 uM, or vemurafenib ranging from 2.5 uM to 50 uM. Cell viability for each well was measured following a 72-hour drug exposure using the WST-1 assay [(Roche Applied. Science, Penzberg, Upper Bavaria, Germany) following the manufacturer's protocol. Absorbance at the 450 nm wavelength was assessed using the Synergy HTX Multi-Mode Plate Reader (BioTek, Winooski, VT)]. Absorbance values for each well were used to calculate percent viability relative to the no drug condition. […]
(Formazan colour is commonly taken as a measure of viable cells.)

Data set [2] deals with docetaxel sensitive DU145 cells. Kind of data set: WST-1 cell viability, docetaxel-sensitive (control) DU145 cells. The format is cell-based. The conditions noted are these: Homo sapiens, DU-145, 72-hour drug exposure. As to the method: A DU145 prostate cancer cell line was obtained from American Type Culture […] (ATCC) and cultured in RPMI 1640 medium (Thermo Fisher Scientific), supplemented with 10% fetal bovine serum (FBS) (Gibco, Thermo Fisher Scientific) and maintained at 37° C. with 5% CO2. A docetaxel-resistant cell line model for DU145 was established by chronically exposing the parent cell line to stepwise increasing concentrations of docetaxel as previously described(41,42). Both cell lines were periodically monitored for mycoplasma using the Universal Mycoplasma Detection Kit following the manufacturer's protocol (A TCC). […]
as §1, with “Following incubation, cells were treated with different concentrations of either docetaxel ranging from 0.92 nM to 6 uM, or vemurafenib ranging from 2.5 uM to 50 uM.” left out, “VT)].” for “VT)]. Absorbance values for each well were used to calculate percent viability relative to the no drug condition.”

The conditions of data set [3]: patients, cited from earlier work.
A further data set concerns mesoderm-like cells. The conditions noted are these: RMS oPDX, Patel et al., 2022; cited from earlier work.

For the compound `Nc1ccn([C@@H]2O[C@H](CO)[C@@H](O)C2(F)F)c(=O)n1` [Gemcitabine], in the data set on PDAC organoids, the “response of basal-like vs classical-like PDAC organoids” value is recorded as “higher resistance”.

As for `CCc1c2c(nc3ccc(O)cc13)-c1cc3c(c(=O)n1C2)COC(=O)[C@]3(O)CC` [SN-38], the “response of CFPAC1 cells grown in complete classical organoid media” value in the data set with CFPAC1 cells is “responsive”.

With `CCCS(=O)(=O)Nc1ccc(F)c(C(=O)c2c[nH]c3ncc(-c4ccc(Cl)cc4)cc23)c1F` [vemurafenib], the IC50 in data set [1] (Homo sapiens, DU-145, 72 h) came out at 12.8 µM; in data set [1], 12.9 µM; in data set [2] it was 27.9 µM. Further, the “average maximum serum concentration (Cmax)” value is 61.4 µg/mL in data set [3] (previous trial (Zhang W et al., 2017)) and 125.3 μM/L in data set [3] (previous trial, equivalent of 61.4 μg/mL). The “tolerability at Cmax” value in data set [3] (previous trial) is “well tolerated”.

Consider `CCc1c2c(nc3ccc(OC(=O)N4CCC(N5CCCCC5)CC4)cc13)-c1cc3c(c(=O)n1C2)COC(=O)[C@]3(O)CC` [irinotecan], for which the “response of mesoderm-like cells compared to myoblast cells” value in the data set on mesoderm-like cells is “highly resistant”.

As for `CC(=O)O[C@@]12CO[C@@H]1C[C@H](O)[C@@]1(C)C(=O)[C@H](O)C3=C(C)[C@@H](OC(=O)[C@H](O)[C@@H](NC(=O)OC(C)(C)C)c4ccccc4)C[C@@](O)([C@@H](OC(=O)c4ccccc4)[C@H]21)C3(C)C` [docetaxel], the “percent viability, resistant vs sensitive DU145 cells” value in data set [1] (docetaxel exposure, FIG. 9, two-way ANOVA) is listed as “higher resistance”.

In the case of `CC(=O)O[C@H]1C(=O)[C@@]2(C)[C@H]([C@H](OC(=O)c3ccccc3)[C@]3(O)C[C@H](OC(=O)[C@H](O)[C@@H](NC(=O)c4ccccc4)c4ccccc4)C(C)=C1C3(C)C)[C@]1(OC(C)=O)CO[C@@H]1C[C@@H]2O` [Paclitaxel], the “response of CFPAC1 cells grown in complete classical organoid media” value with CFPAC1 cells is given as “responsive”.

Source of the values: patent publication US20250066840A1, “Single-cell RNA sequencing analysis pipeline for predicting cell sensitivities to various drugs” (Regents of the University of Minnesota, priority 2023, published 2025).
